Experiment [1] deals with HCT116. Put plainly: MTT assay, survival of human colorectal cancer cells HCT116. It is filed as cell-based. The following applies: HCT-116, 48 h, mean ± SD, read-out: Human cell lines HCT116 IC50(μM ± SD). Here is the method:
The effects on cell viability of the HSP90/HDAC6 dual inhibitors as described in Synthesis Examples (such as Compounds 63, 64, and 66 to 76) were evaluated. Cells were seeded in 96-well plates (5000 cells/well). The next day, the serially diluted drugs were added into the wells and incubated at 37° C. for 48 h. Cell viability was measured by the MTT assay and is expressed as percentages of surviving drug-treated cells relative to untreated control cells. The IC50 was calculated by non-linear regression analysis.
The inhibitory effect of the HSP90/HDAC6 dual inhibitors as described in Synthesis Examples on the survival rate of human colorectal cancer cells HCT116 is evaluated using MTT assay.

Experiment [2] deals with T1, HDAC1 (Homo sapiens, UniProt Q13547).
T1 construct: Reaction Biology Corporation (ran the assay as a service)
Put plainly: HDAC enzymes inhibition assay (Reaction Biology), HDAC1. It is filed as biochemical. The following applies: 10-dose, 3-fold dilution from 10 μM, single experiment.

The target of experiment [3] is T2, HDAC3 (Homo sapiens, UniProt O15379).
T2 construct: Reaction Biology Corporation (ran the assay as a service)
Put plainly: HDAC enzymes inhibition assay (Reaction Biology), HDAC3. The experiment is classed as biochemical. As to conditions: 10-dose, 3-fold dilution from 10 μM, single experiment.

Experiment [4] has as its target T3, HDAC6 (Homo sapiens, UniProt Q9UBN7).
T3 construct: Reaction Biology Corporation (ran the assay as a service)
T3 sequence (Q9UBN7 1-1215): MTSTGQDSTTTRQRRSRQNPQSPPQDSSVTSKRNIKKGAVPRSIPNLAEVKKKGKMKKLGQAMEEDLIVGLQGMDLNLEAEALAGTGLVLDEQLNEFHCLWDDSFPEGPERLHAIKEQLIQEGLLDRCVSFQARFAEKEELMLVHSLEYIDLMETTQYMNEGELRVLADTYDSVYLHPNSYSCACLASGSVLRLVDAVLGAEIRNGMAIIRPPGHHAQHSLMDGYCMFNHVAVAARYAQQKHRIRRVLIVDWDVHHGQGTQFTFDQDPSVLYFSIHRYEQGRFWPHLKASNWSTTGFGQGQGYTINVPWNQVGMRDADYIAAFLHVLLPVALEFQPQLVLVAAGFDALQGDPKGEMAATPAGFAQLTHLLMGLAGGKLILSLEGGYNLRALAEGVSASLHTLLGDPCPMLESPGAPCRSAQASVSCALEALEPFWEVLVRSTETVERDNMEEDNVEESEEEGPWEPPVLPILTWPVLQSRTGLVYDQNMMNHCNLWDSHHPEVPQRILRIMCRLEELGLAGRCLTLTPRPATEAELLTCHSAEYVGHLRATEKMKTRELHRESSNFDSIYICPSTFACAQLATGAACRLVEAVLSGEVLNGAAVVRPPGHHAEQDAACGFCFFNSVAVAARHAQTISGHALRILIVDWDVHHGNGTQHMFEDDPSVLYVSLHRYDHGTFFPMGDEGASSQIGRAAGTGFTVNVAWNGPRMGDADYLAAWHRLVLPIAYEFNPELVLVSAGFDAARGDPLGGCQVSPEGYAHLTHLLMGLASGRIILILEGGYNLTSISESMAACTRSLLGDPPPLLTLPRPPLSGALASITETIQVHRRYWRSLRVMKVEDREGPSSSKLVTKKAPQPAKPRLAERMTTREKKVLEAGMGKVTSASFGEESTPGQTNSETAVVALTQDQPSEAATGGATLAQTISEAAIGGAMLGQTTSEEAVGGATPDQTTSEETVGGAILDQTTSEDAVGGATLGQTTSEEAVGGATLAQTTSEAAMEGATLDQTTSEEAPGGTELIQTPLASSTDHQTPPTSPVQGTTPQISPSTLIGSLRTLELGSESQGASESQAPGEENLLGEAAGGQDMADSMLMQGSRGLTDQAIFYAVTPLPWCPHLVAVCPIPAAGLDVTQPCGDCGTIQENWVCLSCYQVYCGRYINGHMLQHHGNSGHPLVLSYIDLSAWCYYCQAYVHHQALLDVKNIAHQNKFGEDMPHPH
As to the kind of experiment: HDAC enzymes inhibition assay (Reaction Biology), HDAC6. As to conditions: 10-dose, 3-fold dilution from 10 μM, single experiment. The experiment is classed as biochemical.

Experiment [5] addresses T4, HSP90α (Homo sapiens, UniProt P07900).
T4 construct: Reaction Biology Corporation (ran the assay as a service)
As to the kind of experiment: HSP90 inhibition assay, FITC-geldanamycin competition fluorescence polarization, HSP90α. The experiment is classed as binding. The following applies: FITC-GM competition.

Experiment [6] deals with T5, HSP90β (Homo sapiens, UniProt P08238).
T5 construct: Reaction Biology Corporation (ran the assay as a service)
Put plainly: HSP90 inhibition assay, FITC-geldanamycin competition fluorescence polarization, HSP90β. It is filed as binding. As to conditions: FITC-GM competition. In general terms: Fluorescence polarisation rises when a labelled molecule tumbles more slowly, as on binding a larger partner.

Molecules are shown by their SMILES.

A word on the IC50: it is the concentration that gives 50% inhibition.

T2 sequence (O15379 whole entry): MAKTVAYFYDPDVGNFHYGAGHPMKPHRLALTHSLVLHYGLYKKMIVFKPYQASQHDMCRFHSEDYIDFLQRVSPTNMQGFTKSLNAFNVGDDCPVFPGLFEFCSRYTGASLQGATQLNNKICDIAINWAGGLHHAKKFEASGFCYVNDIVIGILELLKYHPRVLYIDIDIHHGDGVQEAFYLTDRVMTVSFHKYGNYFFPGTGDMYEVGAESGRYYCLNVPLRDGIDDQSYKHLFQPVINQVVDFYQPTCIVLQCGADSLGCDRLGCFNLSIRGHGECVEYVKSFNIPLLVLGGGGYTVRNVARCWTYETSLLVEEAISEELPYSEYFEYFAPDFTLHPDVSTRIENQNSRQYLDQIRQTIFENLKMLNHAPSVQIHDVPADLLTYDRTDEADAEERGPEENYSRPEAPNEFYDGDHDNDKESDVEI
T2 sequence (Q9Y618 395-489 partner limits assumed): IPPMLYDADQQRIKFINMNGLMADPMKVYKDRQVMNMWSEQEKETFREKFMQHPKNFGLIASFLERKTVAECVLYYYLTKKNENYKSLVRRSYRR
T5 sequence (P08238 whole entry): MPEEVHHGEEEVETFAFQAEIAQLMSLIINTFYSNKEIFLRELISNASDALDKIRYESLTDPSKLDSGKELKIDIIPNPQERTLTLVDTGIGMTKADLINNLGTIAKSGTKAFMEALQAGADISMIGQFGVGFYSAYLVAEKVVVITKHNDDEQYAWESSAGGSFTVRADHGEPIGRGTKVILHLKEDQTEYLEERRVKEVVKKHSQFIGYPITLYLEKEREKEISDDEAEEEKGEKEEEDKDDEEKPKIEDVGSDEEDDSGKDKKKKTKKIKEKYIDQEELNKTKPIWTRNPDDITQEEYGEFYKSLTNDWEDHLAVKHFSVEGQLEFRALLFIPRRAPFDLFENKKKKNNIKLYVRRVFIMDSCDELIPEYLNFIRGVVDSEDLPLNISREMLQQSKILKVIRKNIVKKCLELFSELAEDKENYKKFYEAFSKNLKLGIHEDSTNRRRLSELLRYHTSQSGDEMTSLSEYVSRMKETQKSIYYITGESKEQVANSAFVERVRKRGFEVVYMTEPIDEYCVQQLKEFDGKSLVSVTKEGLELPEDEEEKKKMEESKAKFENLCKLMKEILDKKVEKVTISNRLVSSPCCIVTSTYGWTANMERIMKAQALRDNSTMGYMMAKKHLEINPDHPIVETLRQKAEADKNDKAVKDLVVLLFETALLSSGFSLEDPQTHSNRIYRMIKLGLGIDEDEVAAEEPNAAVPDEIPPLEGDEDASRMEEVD
T1 sequence (Q13547 whole entry): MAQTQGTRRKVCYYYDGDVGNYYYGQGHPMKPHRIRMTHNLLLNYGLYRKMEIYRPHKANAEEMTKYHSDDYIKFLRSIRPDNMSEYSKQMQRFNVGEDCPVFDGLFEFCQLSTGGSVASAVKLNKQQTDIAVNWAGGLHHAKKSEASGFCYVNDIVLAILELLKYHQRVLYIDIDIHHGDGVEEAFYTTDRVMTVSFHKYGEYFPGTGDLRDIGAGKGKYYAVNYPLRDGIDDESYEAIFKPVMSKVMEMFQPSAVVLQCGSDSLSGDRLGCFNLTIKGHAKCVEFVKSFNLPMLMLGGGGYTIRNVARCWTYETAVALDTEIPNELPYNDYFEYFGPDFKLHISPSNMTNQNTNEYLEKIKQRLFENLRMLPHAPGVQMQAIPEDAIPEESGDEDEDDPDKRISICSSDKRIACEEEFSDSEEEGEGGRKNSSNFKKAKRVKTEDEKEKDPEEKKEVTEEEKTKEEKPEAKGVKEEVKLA

With `CCN(Cc1ccc(C(=O)NO)cc1)C(=O)c1cc(C(C)C)c(O)cc1O` [Compound 64, N-ethyl-2,4-dihydroxy-N-(4-(hydroxycarbamoyl)benzyl)-5-isopropylbenzamide], the 50% inhibitory concentration (IC50) in experiment [1] is 3.69 ± 0.09 µM; in experiment [2] it was 5230 nM; in experiment [3] it was greater than 10000 nM; in experiment [4] it was 23 nM; in experiment [5], 93.9 nM; in experiment [6], 190 nM.
With `CC(C)c1cc(C(=O)N(Cc2ccc(C(=O)NO)cc2)c2ccc(Cl)cc2)c(O)cc1O` [Compound 68, N-(4-chlorophenyl)-2,4-dihydroxy-N-(4-(hydroxycarbamoyl)benzyl)-5-isopropylbenzamide], the IC50 was found to be 5.28 ± 0.92 µM in experiment [1]; 1810 nM in experiment [2]; 3030 nM in experiment [3]; 17.2 nM in experiment [4]; 59.9 nM in experiment [5]; 159 nM in experiment [6].
As to `CC(C)c1cc(C(=O)N(Cc2ccc(C(=O)NO)cc2)c2ccc(F)cc2)c(O)cc1O` [Compound 67, N-(4-fluorophenyl)-2,4-dihydroxy-N-(4-(hydroxycarbamoyl)benzyl)-5-isopropylbenzamide], the IC50 came to 4.61 ± 0.11 µM in experiment [1]; 1690 nM in experiment [2]; 3140 nM in experiment [3]; 22.9 nM in experiment [4]; 40.8 nM in experiment [5]; 103 nM in experiment [6].
For the compound `CC(C)c1cc(C(=O)N(Cc2ccc(C(=O)NO)cc2)c2ccc(N3CCOCC3)cc2)c(O)cc1O` [Compound 71, 2,4-dihydroxy-N-(4-(hydroxycarbamoyl)benzyl)-5-isopropyl-N-(4-morpholinophenyl)benzamide], the half-maximal inhibitory concentration (IC50) is 0.47 ± 0.02 µM in experiment [1]; 275 nM in experiment [2]; 691 nM in experiment [3]; 16 nM in experiment [4]; 16.3 nM in experiment [5]; 18.7 nM in experiment [6].
For `CC(C)c1cc(C(=O)N(Cc2ccc(C(=O)NO)cc2)c2ccccc2)c(O)cc1O` [Compound 66, 2,4-dihydroxy-N-(4-(hydroxycarbamoyl)benzyl)-5-isopropyl-N-phenylbenzamide], the IC50 in experiment [1] was determined as 0.9 ± 0.09 µM; in experiment [2], 3680 nM; in experiment [3] it was 4740 nM; in experiment [4], 23.9 nM; in experiment [5], 54.5 nM; in experiment [6], 200 nM.
For the compound `CC(C)c1cc(C(=O)N(Cc2ccc(C(=O)NO)cc2)c2ccc(N3CCN(C)CC3)cc2)c(O)cc1O` [Compound 73, 2,4-dihydroxy-N-(4-(hydroxycarbamoyl)benzyl)-5-isopropyl-N-(4-(4-methylpiperazin-1-yl)phenyl)benzamide], the IC50 in experiment [1] was 1.25 ± 0.13 µM; in experiment [2] it was 173 nM; in experiment [3] it was 645 nM; in experiment [4], 5.88 nM; in experiment [5] it was 36.7 nM; in experiment [6], 60.5 nM.
Regarding `CC(C)c1cc(C(=O)N(Cc2ccc(C(=O)NO)cc2)c2ccc3c(c2)OCO3)c(O)cc1O` [Compound 70, N-(benzo[d][1,3]dioxol-5-yl)-2,4-dihydroxy-N-(4-(hydroxycarbamoyl)benzyl)-5-isopropylbenzamide], the IC50 is 0.25 ± 0.04 µM in experiment [1]; 1120 nM in experiment [2]; 2200 nM in experiment [3]; 12.9 nM in experiment [4]; 39.9 nM in experiment [5]; 95.6 nM in experiment [6].
With `CC(C)c1cc(C(=O)N(Cc2ccc(C(=O)NO)cc2)c2ccc(I)cc2)c(O)cc1O` [Compound 69, 2,4-dihydroxy-N-(4-(hydroxycarbamoyl)benzyl)-N-(4-iodophenyl)-5-isopropylbenzamide], the IC50 is 1.16 ± 0.01 µM in experiment [1]; 1290 nM in experiment [2]; 2170 nM in experiment [3]; 9.17 nM in experiment [4]; 91.4 nM in experiment [5]; 272 nM in experiment [6].
Consider `CC(C)c1cc(C(=O)N(C)Cc2ccc(C(=O)NO)cc2)c(O)cc1O` [Compound 63, 2,4-dihydroxy-N-(4-(hydroxycarbamoyl)benzyl)-5-isopropyl-N-methylbenzamide], for which the IC50 in experiment [1] is 1.09 ± 0.08 µM; in experiment [2], 1760 nM; in experiment [3], 3620 nM; in experiment [4], 5.93 nM; in experiment [5] it was 25.2 nM; in experiment [6], 38.8 nM.
Regarding `CC(C)c1cc(C(=O)N(Cc2ccc(C(=O)NO)cc2)c2ccc(N(C)C)cc2)c(O)cc1O` [Compound 72, N-(4-(dimethylamino)phenyl)-2,4-dihydroxy-N-(4-(hydroxycarbamoyl)benzyl)-5-isopropylbenzamide], the IC50 in experiment [1] stood at 0.9 ± 0.18 µM; in experiment [2] it was 1070 nM; in experiment [3], 2190 nM; in experiment [4] it was 13.7 nM; in experiment [5], 32.2 nM; in experiment [6], 117 nM.
With `CC(C)c1cc(C(=O)N(Cc2ccc(C(=O)NO)cc2)c2ccc(N3CCCCC3)cc2)c(O)cc1O` [Compound 74, 2,4-dihydroxy-N-(4-(hydroxycarbamoyl)benzyl)-5-isopropyl-N-(4-(piperidin-1-yl)phenyl)benzamide], the IC50 turned out to be 4.83 ± 0.47 µM in experiment [1]; 1230 nM in experiment [2]; 2700 nM in experiment [3]; 70.5 nM in experiment [4]; 98.7 nM in experiment [5]; 373 nM in experiment [6].
As for `CC(C)c1cc(C(=O)N(Cc2ccc(C(=O)NO)cc2)c2ccc(O)cc2)c(O)cc1O` [Compound 76, 2,4-Dihydroxy-N-(4-hydroxycarbamoyl-benzyl)-N-(4-hydroxy-phenyl)-5-isopropyl-benzamide], the IC50 in experiment [1] stood at 0.83 ± 0.01 µM; in experiment [2] it was 961 nM; in experiment [3], 2840 nM; in experiment [4], 6.54 nM; in experiment [5], 35 nM; in experiment [6] it was 51.8 nM.

The values are drawn from US20240398823A1, “DUAL INHIBITOR OF HISTONE DEACETYLASE 6 AND HEAT SHOCK PROTEIN 90” (TAIPEI MEDICAL UNIVERSITY, priority 2021, published 2024).
